{"source": "patent US8632792B2", "about": "“Cooling sensation agent composition and sensory stimulation agent composition” (Takasago International Corporation, priority 2008, dated 2014)", "data": [{"system": "internal bronchia", "test": "Cooling towel (washing processed), organoleptic ranking of cooling action", "assay_type": "in vivo", "conditions": "Group A; 6 hr; 1% in base washing detergent; low sum = strong", "source_text": "(§1) Each of di-1-menthyl carbonate, di-1-isopulegol carbonate, 1-menthyl-1-menthoxy ethyl carbonate, 1-menthyl-1-isopulegol carbonate, 1-menthoxypropanediol benzaldehyde acetal, 1-menthoxypropanediol methylheptenone ketal, 1-menthoxypropanediol-1-citronellal acetal, menthyl palmitate, menthyl stearate, menthyl isostearate, 1-menthoxypropanediol, and an equivalent-weight mixture of 1-menthyl-menthoxy ethyl carbonate, menthoxypropanediol citronellal acetal and menthyl isostearate was compounded with a base washing detergent solution at a concentration of 1%.\n(§2) A pure cotton hand towel (white plain towel made in Japan, 20 cm×20 cm, degrease-finished) was hand-washed for 3 minutes at a particular concentration (water: 10 L, detergent: 3 g, water temperature: 17° C.), then washed with the same amount of water for 2 minutes, squeezed lightly, and air-dried indoor for 6 hours. The hand towels prepared, the hand towels after 24 hours and the hand towels after 48 hours were brought into contact with the internal bronchia and the cooling action thereof was determined organoleptically. The determination was conducted as same as Example 1, that is, […] professional examiners are divided into three groups; different 5 kinds of samples were ranked from the strongest to weakest in action respectively by the examiners in three groups; and the result was shown by the sum of the ranking numbers.", "values": [{"compound": "C=C(C)[C@@H]1CC[C@@H](C)C[C@H]1OC(=O)O[C@@H]1C[C@H](C)CC[C@H]1C(=C)C", "note": "[Di-l-isopulegol carbonate, di-1-isopulegol carbonate]", "sum of the ranking numbers (cooling effect on treated hand towel after washing)": 14}, {"compound": "CC(C)[C@@H]1CC[C@@H](C)C[C@H]1OC(=O)O[C@@H]1C[C@H](C)CC[C@H]1C(C)C", "note": "[Di-l-menthyl carbonate, di-1-menthyl carbonate]", "sum of the ranking numbers (cooling effect on treated hand towel after washing)": 16}]}, {"system": "internal bronchia", "test": "Cooling towel (washing processed), organoleptic ranking of cooling action", "assay_type": "in vivo", "conditions": "Group A; 24 hr; 1% in base washing detergent; low sum = strong", "source_text": "as §1, §2", "values": [{"compound": "C=C(C)[C@@H]1CC[C@@H](C)C[C@H]1OC(=O)O[C@@H]1C[C@H](C)CC[C@H]1C(=C)C", "note": "[Di-l-isopulegol carbonate, di-1-isopulegol carbonate]", "sum of the ranking numbers (cooling effect on treated hand towel after washing)": 13}, {"compound": "CC(C)[C@@H]1CC[C@@H](C)C[C@H]1OC(=O)O[C@@H]1C[C@H](C)CC[C@H]1C(C)C", "note": "[Di-l-menthyl carbonate, di-1-menthyl carbonate]", "sum of the ranking numbers (cooling effect on treated hand towel after washing)": 18}]}, {"system": "internal bronchia", "test": "Cooling towel (washing processed), organoleptic ranking of cooling action", "assay_type": "in vivo", "conditions": "Group A; 48 hr; 1% in base washing detergent; low sum = strong", "source_text": "as §1, §2", "values": [{"compound": "C=C(C)[C@@H]1CC[C@@H](C)C[C@H]1OC(=O)O[C@@H]1C[C@H](C)CC[C@H]1C(=C)C", "note": "[Di-l-isopulegol carbonate, di-1-isopulegol carbonate]", "sum of the ranking numbers (cooling effect on treated hand towel after washing)": 14}, {"compound": "CC(C)[C@@H]1CC[C@@H](C)C[C@H]1OC(=O)O[C@@H]1C[C@H](C)CC[C@H]1C(C)C", "note": "[Di-l-menthyl carbonate, di-1-menthyl carbonate]", "sum of the ranking numbers (cooling effect on treated hand towel after washing)": 18}]}, {"system": "internal bronchia", "test": "Cooling towel (washing processed), organoleptic ranking of cooling action", "assay_type": "in vivo", "conditions": "Group B; 6 hr; 1% in base washing detergent; low sum = strong", "source_text": "as §1, §2", "values": [{"compound": "CC(C)[C@@H]1CC[C@@H](C)C[C@H]1OC(=O)O[C@@H]1C[C@H](C)CC[C@H]1C(C)C", "note": "[Di-l-menthyl carbonate, di-1-menthyl carbonate]", "sum of the ranking numbers (cooling effect on treated hand towel after washing)": 16}]}, {"system": "internal bronchia", "test": "Cooling towel (washing processed), organoleptic ranking of cooling action", "assay_type": "in vivo", "conditions": "Group B; 24 hr (third time point); 1% in base washing detergent; low sum = strong", "source_text": "as §1, §2", "values": [{"compound": "CC(C)[C@@H]1CC[C@@H](C)C[C@H]1OC(=O)O[C@@H]1C[C@H](C)CC[C@H]1C(C)C", "note": "[Di-l-menthyl carbonate, di-1-menthyl carbonate]", "sum of the ranking numbers (cooling effect on treated hand towel after washing)": 16}]}, {"system": "internal bronchia", "test": "Cooling towel (washing processed), organoleptic ranking of cooling action", "assay_type": "in vivo", "conditions": "Group B; 24 hr; 1% in base washing detergent; low sum = strong", "source_text": "as §1, §2", "values": [{"compound": "CC(C)[C@@H]1CC[C@@H](C)C[C@H]1OC(=O)O[C@@H]1C[C@H](C)CC[C@H]1C(C)C", "note": "[Di-l-menthyl carbonate, di-1-menthyl carbonate]", "sum of the ranking numbers (cooling effect on treated hand towel after washing)": 15}]}, {"system": "internal bronchia", "test": "Cooling towel (washing processed), organoleptic ranking of cooling action", "assay_type": "in vivo", "conditions": "Group C; 6 hr; 1% in base washing detergent; low sum = strong", "source_text": "as §1, §2", "values": [{"compound": "CC(C)[C@@H]1CC[C@@H](C)C[C@H]1OC(=O)O[C@@H]1C[C@H](C)CC[C@H]1C(C)C", "note": "[Di-l-menthyl carbonate, di-1-menthyl carbonate]", "sum of the ranking numbers (cooling effect on treated hand towel after washing)": 16}]}, {"system": "internal bronchia", "test": "Cooling towel (washing processed), organoleptic ranking of cooling action", "assay_type": "in vivo", "conditions": "Group C; 24 hr; 1% in base washing detergent; low sum = strong", "source_text": "as §1, §2", "values": [{"compound": "CC(C)[C@@H]1CC[C@@H](C)C[C@H]1OC(=O)O[C@@H]1C[C@H](C)CC[C@H]1C(C)C", "note": "[Di-l-menthyl carbonate, di-1-menthyl carbonate]", "sum of the ranking numbers (cooling effect on treated hand towel after washing)": 21}]}, {"system": "internal bronchia", "test": "Cooling towel (washing processed), organoleptic ranking of cooling action", "assay_type": "in vivo", "conditions": "Group C; 48 hr; 1% in base washing detergent; low sum = strong", "source_text": "as §1, §2", "values": [{"compound": "CC(C)[C@@H]1CC[C@@H](C)C[C@H]1OC(=O)O[C@@H]1C[C@H](C)CC[C@H]1C(C)C", "note": "[Di-l-menthyl carbonate, di-1-menthyl carbonate]", "sum of the ranking numbers (cooling effect on treated hand towel after washing)": 21}]}, {"system": "internal bronchia", "test": "Cooling towel (washing processed), organoleptic ranking of cooling action", "assay_type": "in vivo", "conditions": "washing processed towel; comparison within the compound class", "source_text": "as §1, §2", "values": [{"compound": "CC(C)[C@@H]1CC[C@@H](C)C[C@H]1OC(=O)O[C@@H]1C[C@H](C)CC[C@H]1C(C)C", "note": "[Di-l-menthyl carbonate, di-1-menthyl carbonate]", "cooling action (in words), strength and durability": "weakest"}]}, {"system": "professional examiners", "test": "Cooling treated towel (direct spraying), organoleptic ranking of cooling action", "assay_type": "in vivo", "conditions": "Group A; air-dried 10 min; 1 g of 1% ethanol solution sprayed on cotton towel; ranked strongest to weakest (low sum = strong)", "source_text": "(§3) 1% ethanol solution of each of di-1-menthyl carbonate, di-1-isopulegol carbonate, 1-menthyl-1-menthoxy ethyl carbonate, 1-menthyl-1-isopulegol carbonate, 1-menthoxypropanediol methylheptenone ketal, 1-menthoxypropanediol benzaldehyde acetal, 1-menthoxypropanediol-l-citronellal acetal, menthyl palmitate, menthyl stearate, menthyl isostearate, 1-menthol, and an equivalent-weight mixture of 1-menthyl-menthoxy ethyl carbonate, menthoxypropanediol citronellal acetal and menthyl isostearate was prepared. The solution was sprayed on a pure cotton hand towel (white plain towel made in Japan, 20 cm×20 cm, degrease-finished) in an amount of 1 g. After the towel was air-dried for 10 minutes, 3 hours, or 24 hours, the cooling action of each towel was determined organoleptically. Fifteen professional examiners with 5 years or more of experience are divided into three groups; different 5 kinds of samples were ranked from the strongest to weakest in action respectively by the examiners in three groups; and the result was shown by the sum of the ranking numbers.", "values": [{"compound": "C=C(C)[C@@H]1CC[C@@H](C)C[C@H]1OC(=O)O[C@@H]1C[C@H](C)CC[C@H]1C(=C)C", "note": "[Di-l-isopulegol carbonate, di-1-isopulegol carbonate]", "sum of the ranking numbers (cooling effect on treated hand towel at direct spraying)": 17}, {"compound": "CC(C)[C@@H]1CC[C@@H](C)C[C@H]1OC(=O)O[C@@H]1C[C@H](C)CC[C@H]1C(C)C", "note": "[Di-l-menthyl carbonate, di-1-menthyl carbonate]", "sum of the ranking numbers (cooling effect on treated hand towel at direct spraying)": 24}]}, {"system": "professional examiners", "test": "Cooling treated towel (direct spraying), organoleptic ranking of cooling action", "assay_type": "in vivo", "conditions": "Group A; air-dried 3 hr; 1% ethanol solution; low sum = strong", "source_text": "as §3", "values": [{"compound": "C=C(C)[C@@H]1CC[C@@H](C)C[C@H]1OC(=O)O[C@@H]1C[C@H](C)CC[C@H]1C(=C)C", "note": "[Di-l-isopulegol carbonate, di-1-isopulegol carbonate]", "sum of the ranking numbers (cooling effect on treated hand towel at direct spraying)": 12}, {"compound": "CC(C)[C@@H]1CC[C@@H](C)C[C@H]1OC(=O)O[C@@H]1C[C@H](C)CC[C@H]1C(C)C", "note": "[Di-l-menthyl carbonate, di-1-menthyl carbonate]", "sum of the ranking numbers (cooling effect on treated hand towel at direct spraying)": 21}]}, {"system": "professional examiners", "test": "Cooling treated towel (direct spraying), organoleptic ranking of cooling action", "assay_type": "in vivo", "conditions": "Group A; air-dried 24 hr; 1% ethanol solution; low sum = strong", "source_text": "as §3", "values": [{"compound": "C=C(C)[C@@H]1CC[C@@H](C)C[C@H]1OC(=O)O[C@@H]1C[C@H](C)CC[C@H]1C(=C)C", "note": "[Di-l-isopulegol carbonate, di-1-isopulegol carbonate]", "sum of the ranking numbers (cooling effect on treated hand towel at direct spraying)": 11}, {"compound": "CC(C)[C@@H]1CC[C@@H](C)C[C@H]1OC(=O)O[C@@H]1C[C@H](C)CC[C@H]1C(C)C", "note": "[Di-l-menthyl carbonate, di-1-menthyl carbonate]", "sum of the ranking numbers (cooling effect on treated hand towel at direct spraying)": 20}]}, {"system": "professional examiners", "test": "Cooling treated towel (direct spraying), organoleptic ranking of cooling action", "assay_type": "in vivo", "conditions": "Group B; air-dried 10 min; 1% ethanol solution; low sum = strong", "source_text": "as §3", "values": [{"compound": "CC(C)[C@@H]1CC[C@@H](C)C[C@H]1OC(=O)O[C@@H]1C[C@H](C)CC[C@H]1C(C)C", "note": "[Di-l-menthyl carbonate, di-1-menthyl carbonate]", "sum of the ranking numbers (cooling effect on treated hand towel at direct spraying)": 24}]}, {"system": "professional examiners", "test": "Cooling treated towel (direct spraying), organoleptic ranking of cooling action", "assay_type": "in vivo", "conditions": "Group B; air-dried 3 hr; 1% ethanol solution; low sum = strong", "source_text": "as §3", "values": [{"compound": "CC(C)[C@@H]1CC[C@@H](C)C[C@H]1OC(=O)O[C@@H]1C[C@H](C)CC[C@H]1C(C)C", "note": "[Di-l-menthyl carbonate, di-1-menthyl carbonate]", "sum of the ranking numbers (cooling effect on treated hand towel at direct spraying)": 19}]}, {"system": "professional examiners", "test": "Cooling treated towel (direct spraying), organoleptic ranking of cooling action", "assay_type": "in vivo", "conditions": "Group B; air-dried 24 hr; 1% ethanol solution; low sum = strong", "source_text": "as §3", "values": [{"compound": "CC(C)[C@@H]1CC[C@@H](C)C[C@H]1OC(=O)O[C@@H]1C[C@H](C)CC[C@H]1C(C)C", "note": "[Di-l-menthyl carbonate, di-1-menthyl carbonate]", "sum of the ranking numbers (cooling effect on treated hand towel at direct spraying)": 19}]}, {"system": "professional examiners", "test": "Cooling treated towel (direct spraying), organoleptic ranking of cooling action", "assay_type": "in vivo", "conditions": "Group C; air-dried 10 min; 1% ethanol solution; low sum = strong", "source_text": "as §3", "values": [{"compound": "CC(C)[C@@H]1CC[C@@H](C)C[C@H]1OC(=O)O[C@@H]1C[C@H](C)CC[C@H]1C(C)C", "note": "[Di-l-menthyl carbonate, di-1-menthyl carbonate]", "sum of the ranking numbers (cooling effect on treated hand towel at direct spraying)": 17}]}, {"system": "professional examiners", "test": "Cooling treated towel (direct spraying), organoleptic ranking of cooling action", "assay_type": "in vivo", "conditions": "Group C; air-dried 3 hr; 1% ethanol solution; low sum = strong", "source_text": "as §3", "values": [{"compound": "CC(C)[C@@H]1CC[C@@H](C)C[C@H]1OC(=O)O[C@@H]1C[C@H](C)CC[C@H]1C(C)C", "note": "[Di-l-menthyl carbonate, di-1-menthyl carbonate]", "sum of the ranking numbers (cooling effect on treated hand towel at direct spraying)": 21}]}, {"system": "professional examiners", "test": "Cooling treated towel (direct spraying), organoleptic ranking of cooling action", "assay_type": "in vivo", "conditions": "Group C; air-dried 24 hr; 1% ethanol solution; low sum = strong", "source_text": "as §3", "values": [{"compound": "CC(C)[C@@H]1CC[C@@H](C)C[C@H]1OC(=O)O[C@@H]1C[C@H](C)CC[C@H]1C(C)C", "note": "[Di-l-menthyl carbonate, di-1-menthyl carbonate]", "sum of the ranking numbers (cooling effect on treated hand towel at direct spraying)": 21}]}, {"system": "not given", "test": "not given", "conditions": "not given", "units": {"melting point": "°C"}, "values": [{"compound": "C=C(C)[C@@H]1CC[C@@H](C)C[C@H]1OC(=O)O[C@@H]1C[C@H](C)CC[C@H]1C(=C)C", "note": "[Di-l-isopulegol carbonate, di-1-isopulegol carbonate]", "melting point": "86 to 87"}]}]}
